This is an account of results in US10034939B2, “Synergistic combination of immunologic inhibitors for the treatment of cancer” (The University of Chicago, priority 2012, dated 2018).

For assay [1], the target named is Human indoleamine 2,3-dioxygenasae (IDO) (Homo sapiens (Human), UniProt P14902). Kind of assay: Human indoleamine 2,3-dioxygenasae (IDO) enzyme assay. The class given is biochemical. From the text: Human indoleamine 2,3-dioxygenasae (IDO) enzyme assay: Human indoleamine 2,3-dioxygenasae (IDO) with an N-terminal His tag was expressed in E. coli and purified to homogeneity. IDO catalyzes the oxidative cleavage of the pyrrole ring of the indole nucleus of tryptophan to yield N′-formylkynurenine.
Chain of Human indoleamine 2,3-dioxygenasae (IDO) (P14902 whole entry): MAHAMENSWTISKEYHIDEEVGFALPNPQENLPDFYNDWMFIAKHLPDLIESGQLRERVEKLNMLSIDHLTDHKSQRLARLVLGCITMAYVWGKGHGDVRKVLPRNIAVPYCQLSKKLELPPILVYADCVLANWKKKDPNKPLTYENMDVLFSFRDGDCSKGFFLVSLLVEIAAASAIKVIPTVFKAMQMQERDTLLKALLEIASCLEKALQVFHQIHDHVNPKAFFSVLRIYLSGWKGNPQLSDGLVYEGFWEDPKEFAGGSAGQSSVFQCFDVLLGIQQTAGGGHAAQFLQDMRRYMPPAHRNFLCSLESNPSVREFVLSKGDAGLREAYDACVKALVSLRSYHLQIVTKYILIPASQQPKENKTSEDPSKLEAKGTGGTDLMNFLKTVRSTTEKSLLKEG
IC50 data are from the IDO enzyme assay described above.

The subject of the next assay is B16-SIY cells. Kind of assay: Tumor growth inhibition (TGI), unaffected fraction synergy analysis of combination therapies. Type of assay: in vivo, mice. The protocol: Treatment was initiated on day 4 post tumor inoculation with the following regimens for each drug. αCTLA-4 antibody (clone UC10-4F10-11, Bio-X-Cell) was given i.p. on day 4, 7 and 10 at a dose of 100 μg/mouse. αPD-L1 antibody (clone 10F.9G2, Bio-X-Cell) was given i.p. (100 μg/mouse) every other day starting on day 4 ending on day 16 post tumor inoculation. IDOi (INCB23843, Incyte Corporation) was dissolved in 0.5% methylcellulose and administered at 300 mg/kg po QD on a 5 days on/2 days off schedule starting on day 4. In the case of functional experiments with an earlier endpoint, treatment regimens were carried out as described until the day of T cell analysis. A comparison between IDOi and IDOc (INCB24360, Incyte Corporation) was perfomed according to the treatment regime described above. Tumor outgrowth was followed starting day 7 onwards and is depicted in combination with anti-CTLA4 (FIG. 18A) or anti-PD-L1 (FIG. 18B). N=5 mice per group, and a two-way Anova test was used to determine significance between the groups.
Treatment was administered in the same fashion as described for FIG. 9, with the exception that IDOi (INCB23843) was replaced by IDOc (INCB24360) in the indicated groups. […] Synergy analysis was performed with day 15 data and with day 23 data. Actual tumor growth inhibition (TGI) is the experimental TGI seen in this experiment for the combinations, and predicted TGI is the TGI that would have been expected for a purely additive combination effect from the performance of the individual agents in this experiment. Actual TGIs higher than predicted TGIs reflect better than additive (synergistic) data.

Like-named read-outs stand apart in the source and are kept apart here.

Consider `NS(=O)(=O)NCCCNc1nonc1C(=NO)Nc1ccc(F)c(Br)c1` [Example 3, 4-({3-[(Aminosulfonyl)amino]propyl}amino)-N-(3-bromo-4-fluorophenyl)-N′-hydroxy-1,2,5-oxadiazole-3-carboximidamide], for which, in assay [1] (read-out: IDO IC50), the half-inhibitory concentration (IC50) is below 100 nM.

Turning to `CS(=O)(=O)NCCCNc1nonc1C(=NO)Nc1ccc(F)c(Br)c1` [Example 4, N-(3-Bromo-4-fluorophenyl)-N′-hydroxy-4-({3-[(methylsulfonyl)amino]propyl}amino)-1,2,5-oxadiazole-3-carboximidamide], in assay [1] (read-out: IDO IC50), the IC50 is below 100 nM.

With `NS(=O)(=O)NCCNc1nonc1C(=NO)Nc1ccc(F)c(Cl)c1` [Example 5, 4-({2-[(Aminosulfonyl)amino]ethyl}amino)-N-(3-chloro-4-fluorophenyl)-N′-hydroxy-1,2,5-oxadiazole-3-carboximidamide], in assay [1] (read-out: IDO IC50), the IC50 is below 200 nM.

Turning to `CS(=O)(=O)NCCNc1nonc1C(=NO)Nc1ccc(F)c(Cl)c1` [Example 6, N-(3-Chloro-4-fluorophenyl)-N′-hydroxy-4-({2-[(methylsulfonyl)amino]ethyl}amino)-1,2,5-oxadiazole-3-carboximidamide], the IC50 in assay [1] (read-out: IDO IC50) was below 200 nM.

For the compound `NS(=O)(=O)NCCCNc1nonc1C(=NO)Nc1ccc(F)c(Cl)c1` [Example 7, 4-({3-[(Aminosulfonyl)amino]propyl}amino)-N-(3-chloro-4-fluorophenyl)-N′-hydroxy-1,2,5-oxadiazole-3-carboximidamide], the IC50 in assay [1] (read-out: IDO IC50) was below 200 nM.

For `CS(=O)(=O)NCCCNc1nonc1C(=NO)Nc1ccc(F)c(Cl)c1` [Example 8, N-(3-Chloro-4-fluorophenyl)-N′-hydroxy-4-({3-[(methylsulfonyl)amino]propyl}amino)-1,2,5-oxadiazole-3-carboximidamide], the IC50 in assay [1] (read-out: IDO IC50) is below 200 nM.

Regarding `NS(=O)(=O)NCCNc1nonc1C(=NO)Nc1ccc(F)c(C(F)(F)F)c1` [Example 9, 4-({2-[(Aminosulfonyl)amino]ethyl}amino)-N-[4-fluoro-3-(trifluoromethyl)phenyl]-N′-hydroxy-1,2,5-oxadiazole-3-carboximidamide], in assay [1] (read-out: IDO IC50), the IC50 was below 100 nM.

In the case of `CS(=O)(=O)NCCNc1nonc1C(=NO)Nc1ccc(F)c(C(F)(F)F)c1` [Example 10, N-[4-Fluoro-3-(trifluoromethyl)phenyl]-N′-hydroxy-4-({2-[(methylsulfonyl)amino]ethyl}amino)-1,2,5-oxadiazole-3-carboximidamide], in assay [1] (read-out: IDO IC50), the IC50 was below 100 nM.

Turning to `NS(=O)(=O)NCCCNc1nonc1C(=NO)Nc1ccc(F)c(C(F)(F)F)c1` [Example 11, 4-({3-[(Aminosulfonyl)amino]propyl}amino)-N-[4-fluoro-3-(trifluoromethyl)phenyl]-N′-hydroxy-1,2,5-oxadiazole-3-carboximidamide], the IC50 in assay [1] (read-out: IDO IC50) was below 100 nM.

Regarding `CS(=O)(=O)NCCCNc1nonc1C(=NO)Nc1ccc(F)c(C(F)(F)F)c1` [Example 12, N-[4-Fluoro-3-(trifluoromethyl)phenyl]-N′-hydroxy-4-({3-[(methylsulfonyl)amino]propyl}amino)-1,2,5-oxadiazole-3-carboximidamide], the IC50 in assay [1] (read-out: IDO IC50) is below 100 nM.

`NS(=O)(=O)NCCNc1nonc1C(=NO)Nc1cccc(C(F)(F)F)c1` [Example 13, 4-({2-[(Aminosulfonyl)amino]ethyl}amino)-N′-hydroxy-N-[3-(trifluoromethyl)phenyl]-1,2,5-oxadiazole-3-carboximidamide]: in assay [1] (read-out: IDO IC50), the IC50 was below 500 nM.

As for `CS(=O)(=O)NCCNc1nonc1C(=NO)Nc1cccc(C(F)(F)F)c1` [Example 14, N′-Hydroxy-4-({2-[(methylsulfonyl)amino]ethyl}amino)-N-[3-(trifluoromethyl)phenyl]-1,2,5-oxadiazole-3-carboximidamide], the IC50 in assay [1] (read-out: IDO IC50) was below 200 nM.

As to `NS(=O)(=O)NCCCNc1nonc1C(=NO)Nc1cccc(C(F)(F)F)c1` [Example 15, 4-({3-[(Aminosulfonyl)amino]propyl}amino)-N′-hydroxy-N-[3-(trifluoromethyl)phenyl]-1,2,5-oxadiazole-3-carboximidamide], the IC50 in assay [1] (read-out: IDO IC50) is below 200 nM.

For the compound `CS(=O)(=O)NCCCNc1nonc1C(=NO)Nc1cccc(C(F)(F)F)c1` [Example 16, N′-Hydroxy-4-({3-[(methylsulfonyl)amino]propyl}amino)-N-[3-(trifluoromethyl)phenyl]-1,2,5-oxadiazole-3-carboximidamide], in assay [1] (read-out: IDO IC50), the half-maximal inhibitory concentration (IC50) was below 200 nM.

As to `Cc1cc(NC(=NO)c2nonc2NCCNS(C)(=O)=O)ccc1F` [Example 17, N-(4-Fluoro-3-methylphenyl)-N′-hydroxy-4-({2-[(methylsulfonyl)amino]ethyl}amino)-1,2,5-oxadiazole-3-carboximidamide], the IC50 in assay [1] (read-out: IDO IC50) is below 500 nM.

For the compound `N#Cc1cc(NC(=NO)c2nonc2NCCNS(N)(=O)=O)ccc1F` [Example 18, 4-({2-[(Aminosulfonyl)amino]ethyl}amino)-N-(3-cyano-4-fluorophenyl)-N′-hydroxy-1,2,5-oxadiazole-3-carboximidamide], the IC50 in assay [1] (read-out: IDO IC50) was below 750 nM.

On to `CS(=O)(=O)NCCNc1nonc1C(=NO)Nc1ccc(F)c(C#N)c1` [Example 19, N-(3-Cyano-4-fluorophenyl)-N′-hydroxy-4-({2-[(methylsulfonyl)amino]ethyl}amino)-1,2,5-oxadiazole-3-carboximidamide], for which, in assay [1] (read-out: IDO IC50), the IC50 was below 500 nM.

`NS(=O)(=O)NCCNc1nonc1C(=NO)NCc1cc(Br)co1` [Example 20, 4-({2-[(Aminosulfonyl)amino]ethyl}amino)-N-[(4-bromo-2-furyl)methyl]-N′-hydroxy-1,2,5-oxadiazole-3-carboximidamide]: the IC50 in assay [1] (read-out: IDO IC50) was below 500 nM.

For the compound `NS(=O)(=O)NCCNc1nonc1C(=NO)NCc1cc(Cl)co1` [Example 21, 4-({2-[(Aminosulfonyl)amino]ethyl}amino)-N-[(4-chloro-2-furyl)methyl]-N′-hydroxy-1,2,5-oxadiazole-3-carboximidamide], in assay [1] (read-out: IDO IC50), the IC50 was below 750 nM.

Take `CN(CCNc1nonc1/C(=N/O)Nc1ccc(F)c(Cl)c1)S(N)(=O)=O` [Example 24, 4-(2-[(Aminosulfonyl)(methyl)amino]ethylamino)-N-(3-chloro-4-fluorophenyl)-N′-hydroxy-1,2,5-oxadiazole-3-carboximidamide]: the IC50 is 132 nM in assay [1] (average of five lots, read-out: IC50) and below 200 nM in assay [1] (read-out: IDO IC50).

Consider `NS(=O)(=O)NCCNc1nonc1/C(=N/O)Nc1ccc(F)c(Br)c1` [IDOc], for which the “Actual TGI” value was determined as 74% in the assay with B16-SIY cells (Day 15 (end of dosing), combination with anti CTLA4); 81% with B16-SIY cells (Day 15 (end of dosing), combination with antiPDL1); 93% in the assay with B16-SIY cells (Day 23 (last day of vehicles), combination with anti CTLA4); 82% in the assay with B16-SIY cells (Day 23 (last day of vehicles), combination with antiPDL1). Moreover, the “Predicted TGI” value with B16-SIY cells (Day 15, combination with anti CTLA4, expected for a purely additive effect from the individual agents) is reported as 66%; in the assay on B16-SIY cells (Day 15, combination with antiPDL1, expected for a purely additive effect), 24%; in the assay with B16-SIY cells (Day 23, combination with anti CTLA4, expected for a purely additive effect), 65%; with B16-SIY cells (Day 23, combination with antiPDL1, expected for a purely additive effect), 35%.

The IC50 is the concentration needed to halve the response being measured.
